We go through three compounds from publication PMC9064817 (RSC Advances, 2019).

The subject of assay [1] is tubulin. In words: fluorescence-based tubulin polymerization assay. To be noted: read-out: Anti-tubulin activity (IC50). The format is biochemical, Bos taurus.
Assay [2] relates to tubulin. In words: fluorescence-based tubulin polymerization assay. The format is biochemical, Bos taurus. To be noted: read-out: Anti-tubulin activity (IC50). This is another data set of the same source.

The structures appear in SMILES notation. Read-outs that look alike come from different tables or passages of the source.

Regarding `CN1c2cccc(C(=O)Nc3cccnc3)c2Nc2cccc(Cl)c21` [8l, 6-Chloro-5-methyl-N-(pyridin-3-yl)-5,10-dihydrophenazine-1-carboxamide], the IC50 (as a rule, the concentration that inhibits the measured activity by half) with tubulin [1] was 2.36 µM.
Turning to `COC(=O)Nc1nc2ccc(C(=O)c3cccs3)cc2[nH]1` [Nocodazole], in the assay with tubulin [2], the concentration for half-maximal inhibition (IC50) was determined as […].
Turning to `COc1cccc(NC(=O)c2cccc3c2Nc2cccc(Cl)c2N3C)c1` [8a, 6-Chloro-N-(3-methoxyphenyl)-5-methyl-5,10-dihydrophenazine-1-carboxamide], the IC50 in the assay on tubulin [1] is 2.64 µM.
